Reference: patent publication US11166460B2, “α-amino acrylate microbicide, and preparation method therefor and uses thereof” (priority 2017, dated 2021)
≈ marks a conversion by molar mass, not a printed value. Read-outs that look alike come from different tables or passages of the source.

Key:
[1] = test system: tobacco mosaic virus (TMV); experiment: Anti-TMV curative activity (treatment mode), live friction inoculation on tobacco seedlings; assay type: in vivo; conditions: Tobacco mosaic virus, read-out: Anti-TMV activity, Curative effect (inhibition), 100 μg/mL, tobacco seedlings, checked on seventh day
[2] = test system: tobacco mosaic virus (TMV); experiment: Anti-TMV inactivation activity (inactivation mode), compound mixed with TMV before inoculation of tobacco leaves; assay type: in vivo; conditions: Tobacco mosaic virus, read-out: Anti-TMV activity, Inactivation effect (inhibition)
[3] = test system: tobacco mosaic virus (TMV); experiment: Anti-TMV protective activity (protection mode), live friction inoculation on tobacco seedlings; assay type: in vivo; conditions: Tobacco mosaic virus, read-out: Anti-TMV activity, Protection effect (inhibition)
[4] = test system: tobacco mosaic virus (TMV); experiment: Anti-TMV inducing activity (induction mode), tobacco seedlings; assay type: in vivo; conditions: Tobacco mosaic virus, read-out: Anti-TMV activity, Induction effect (inhibition), 100 μg/mL, tobacco seedlings
Alternaria solani = experiment: Fungicidal activity, fungi growth rate method, AS; assay type: cell-based; conditions: Alternaria solani; 50 μg/mL; read-out: Fungicidal activity, inhibition, AS
Botrytis cinerea = experiment: Fungicidal activity, fungi growth rate method, BC; assay type: cell-based; conditions: Botrytis cinerea; 50 μg/mL; read-out: Fungicidal activity, inhibition, BC
Cercospora arachidicola = experiment: Fungicidal activity, fungi growth rate method, CA; assay type: cell-based; conditions: Mycosphaerella arachidis, 50 μg/mL
wheat Gibberella zeae = experiment: microbe, parasite or virus in culture; assay type: cell-based; conditions: Fusarium graminearum, read-out: Fungicidal activity, inhibition, GZ
[5] = test system: Phytophthora infestans (Mont) de Bary; experiment: microbe, parasite or virus in culture; assay type: cell-based; conditions: Phytophthora infestans
Physalospora piricola = experiment: Fungicidal activity, fungi growth rate method, PP; assay type: cell-based; conditions: 50 μg/mL; read-out: Fungicidal activity, inhibition, PP
Pellicularia sasakii = experiment: Fungicidal activity, fungi growth rate method, PS; assay type: cell-based; conditions: 50 μg/mL; read-out: Fungicidal activity, inhibition, PS
Rhizoctonia cerealis = experiment: Fungicidal activity, fungi growth rate method, RC; assay type: cell-based; conditions: Ceratobasidium cereale; 50 μg/mL; read-out: Fungicidal activity, inhibition, RC
Sclerotinia sclerotiorum = experiment: microbe, parasite or virus in culture; assay type: cell-based; conditions: Sclerotinia sclerotiorum; for EC90: read-out: EC90 against S. sclerotiorum in vitro; for inhibition at 50 µg/mL: 50 μg/mL
[6] = read-out: Fungicidal activity, inhibition, CA
[7] = read-out: Fungicidal activity, inhibition, PI
[8] = read-out: Fungicidal activity (inhibition) against SS: Sclerotinia sclerotiorum
[9] = read-out: Fungicidal activity, inhibition, SS

O=C(N/C(=C\c1ccccc1)C(=O)N1CCC(O)(c2ccc(Br)cc2)CC1)c1ccc(C(F)(F)F)cc1 [Compound 9, (Z)-N-[1-[[4-(4-bromophenyl)-4-hydroxy-1-piperidinyl]carbonyl]-2-phenylethenyl]-4-(trifluoromethyl)benzamide]
inhibition at 100 µg/mL [1]: 50% | inhibition at 100 µg/mL [2]: 15% | inhibition at 100 µg/mL [3]: 60% | inhibition at 100 µg/mL [4]: 10% | inhibition at 50 µg/mL (Alternaria solani): 15% | inhibition at 50 µg/mL (Botrytis cinerea): 13% | inhibition at 50 µg/mL (Cercospora arachidicola; [6]): 14% | inhibition at 50 µg/mL (wheat Gibberella zeae): 0% | inhibition at 50 µg/mL [5, 7]: 18% | inhibition at 50 µg/mL (Physalospora piricola): 7% | inhibition at 50 µg/mL (Pellicularia sasakii): 17% | inhibition at 50 µg/mL (Rhizoctonia cerealis): 11% | EC90 (Sclerotinia sclerotiorum): 273 µg/mL (≈ 477 µM) | inhibition at 50 µg/mL (Sclerotinia sclerotiorum; [8]): 100% | inhibition at 50 µg/mL (Sclerotinia sclerotiorum; [9]): 100% | melting point: 130 to 131 °C

O=C(N/C(=C\c1ccccc1)C(=O)N1CCC(O)(c2ccc(Br)cc2)CC1)c1ccc([N+](=O)[O-])cc1 [Compound 10, (Z)-N-[1-[[4-(4-bromophenyl)-4-hydroxy-1-piperidinyl]carbonyl]-2-phenylethenyl]-4-nitrobenzamide]
inhibition at 100 µg/mL [1]: 39% | inhibition at 100 µg/mL [2]: 62% | inhibition at 100 µg/mL [3]: 13% | inhibition at 100 µg/mL [4]: 48% | inhibition at 50 µg/mL (Alternaria solani): 8% | inhibition at 50 µg/mL (Botrytis cinerea): 11% | inhibition at 50 µg/mL (Cercospora arachidicola; [6]): 9% | inhibition at 50 µg/mL (wheat Gibberella zeae): 17% | inhibition at 50 µg/mL [5, 7]: 18% | inhibition at 50 µg/mL (Physalospora piricola): 7% | inhibition at 50 µg/mL (Pellicularia sasakii): 17% | inhibition at 50 µg/mL (Rhizoctonia cerealis): 16% | inhibition at 50 µg/mL (Sclerotinia sclerotiorum; [8]): 80 to 95% | inhibition at 50 µg/mL (Sclerotinia sclerotiorum; [9]): 86% | melting point: 130 to 132 °C

O=C(N/C(=C\c1ccccc1)C(=O)N1CCC(O)(c2ccc(Br)cc2)CC1)c1cccc([N+](=O)[O-])c1 [Compound 11, (Z)-N-[1-[[4-(4-bromophenyl)-4-hydroxy-1-piperidinyl]carbonyl]-2-phenylethenyl]-3-nitrobenzamide]
inhibition at 100 µg/mL [1]: 78% | inhibition at 100 µg/mL [2]: 71% | inhibition at 100 µg/mL [3]: 5% | inhibition at 100 µg/mL [4]: 33% | inhibition at 50 µg/mL (Alternaria solani): 24% | inhibition at 50 µg/mL (Botrytis cinerea): 12% | inhibition at 50 µg/mL (Cercospora arachidicola; [6]): 25% | inhibition at 50 µg/mL (wheat Gibberella zeae): 34% | inhibition at 50 µg/mL [5, 7]: 14% | inhibition at 50 µg/mL (Physalospora piricola): 21% | inhibition at 50 µg/mL (Pellicularia sasakii): 8% | inhibition at 50 µg/mL (Rhizoctonia cerealis): 24% | EC90 (Sclerotinia sclerotiorum): 127 µg/mL (≈ 232 µM) | inhibition at 50 µg/mL (Sclerotinia sclerotiorum; [8]): 100% | inhibition at 50 µg/mL (Sclerotinia sclerotiorum; [9]): 100% | melting point: 128 to 129 °C

O=C(N/C(=C\c1ccccc1)C(=O)N1CCC(O)(c2ccc(Br)cc2)CC1)c1ccccc1[N+](=O)[O-] [Compound 12, (Z)-N-[1-[[4-(4-bromophenyl)-4-hydroxy-1-piperidinyl]carbonyl]-2-phenylethenyl]-2-nitrobenzamide]
inhibition at 100 µg/mL [1]: 56% | inhibition at 100 µg/mL [2]: 28% | inhibition at 100 µg/mL [3]: 23% | inhibition at 100 µg/mL [4]: 0% | inhibition at 50 µg/mL (Alternaria solani): 12% | inhibition at 50 µg/mL (Botrytis cinerea): 8% | inhibition at 50 µg/mL (Cercospora arachidicola; [6]): 16% | inhibition at 50 µg/mL (wheat Gibberella zeae): 39% | inhibition at 50 µg/mL [5, 7]: 10% | inhibition at 50 µg/mL (Physalospora piricola): 17% | inhibition at 50 µg/mL (Pellicularia sasakii): 17% | inhibition at 50 µg/mL (Rhizoctonia cerealis): 14% | EC90 (Sclerotinia sclerotiorum): 192 µg/mL (≈ 348 µM) | inhibition at 50 µg/mL (Sclerotinia sclerotiorum; [8]): 100% | inhibition at 50 µg/mL (Sclerotinia sclerotiorum; [9]): 100% | melting point: 122 to 124 °C

O=C(N/C(=C\c1ccccc1)C(=O)N1CCC(O)(c2ccc(Br)cc2)CC1)c1ccco1 [Compound 13, (Z)-N-[1-[[4-(4-bromophenyl)-4-hydroxy-1-piperidinyl]carbonyl]-2-phenylethenyl]-2-furamide]
inhibition at 100 µg/mL [1]: 47% | inhibition at 100 µg/mL [2]: 69% | inhibition at 100 µg/mL [3]: 26% | inhibition at 100 µg/mL [4]: 30% | inhibition at 50 µg/mL (Alternaria solani): 15% | inhibition at 50 µg/mL (Botrytis cinerea): 24% | inhibition at 50 µg/mL (Cercospora arachidicola; [6]): 16% | inhibition at 50 µg/mL (wheat Gibberella zeae): 33% | inhibition at 50 µg/mL [5, 7]: 27% | inhibition at 50 µg/mL (Physalospora piricola): 16% | inhibition at 50 µg/mL (Pellicularia sasakii): 21% | inhibition at 50 µg/mL (Rhizoctonia cerealis): 22% | EC90 (Sclerotinia sclerotiorum): 195 µg/mL (≈ 394 µM) | inhibition at 50 µg/mL (Sclerotinia sclerotiorum; [9]): 95% | melting point: 138 to 140 °C

O=C(N/C(=C\c1ccccc1)C(=O)N1CCC(O)(c2ccc(Br)cc2)CC1)c1cccs1 [Compound 14, (Z)-N-[1-[[4-(4-bromophenyl)-4-hydroxy-1-piperidinyl]carbonyl]-2-phenylethenyl]-2-thiophenecarboxamide]
inhibition at 100 µg/mL [1]: 39% | inhibition at 100 µg/mL [2]: 30% | inhibition at 100 µg/mL [3]: 34% | inhibition at 100 µg/mL [4]: 52% | inhibition at 50 µg/mL (Alternaria solani): 17% | inhibition at 50 µg/mL (Botrytis cinerea): 24% | inhibition at 50 µg/mL (Cercospora arachidicola; [6]): 7% | inhibition at 50 µg/mL (wheat Gibberella zeae): 7% | inhibition at 50 µg/mL [5, 7]: 5% | inhibition at 50 µg/mL (Physalospora piricola): 0% | inhibition at 50 µg/mL (Pellicularia sasakii): 3% | inhibition at 50 µg/mL (Rhizoctonia cerealis): 8% | inhibition at 50 µg/mL (Sclerotinia sclerotiorum; [8]): 80 to 95% | inhibition at 50 µg/mL (Sclerotinia sclerotiorum; [9]): 83% | melting point: 134 to 136 °C

Cc1ccc(/C=C(\NC(=O)c2ccccc2)C(=O)N2CCC(O)(c3ccc(Br)cc3)CC2)cc1 [Compound 15, (Z)-N-[1-[[4-(4-bromophenyl)-4-hydroxy-1-piperidinyl]carbonyl]-2-(4-metylphenyl)ethenyl]benzamide]
inhibition at 100 µg/mL [1]: 20% | inhibition at 100 µg/mL [2]: 0% | inhibition at 100 µg/mL [3]: 0% | inhibition at 100 µg/mL [4]: 41% | inhibition at 50 µg/mL (Alternaria solani): 17% | inhibition at 50 µg/mL (Botrytis cinerea): 10% | inhibition at 50 µg/mL (Cercospora arachidicola; [6]): 13% | inhibition at 50 µg/mL (wheat Gibberella zeae): 10% | inhibition at 50 µg/mL [5, 7]: 21% | inhibition at 50 µg/mL (Physalospora piricola): 7% | inhibition at 50 µg/mL (Pellicularia sasakii): 12% | inhibition at 50 µg/mL (Rhizoctonia cerealis): 16% | inhibition at 50 µg/mL (Sclerotinia sclerotiorum; [9]): 56% | melting point: 234 to 236 °C

COc1ccc(/C=C(\NC(=O)c2ccccc2)C(=O)N2CCC(O)(c3ccc(Br)cc3)CC2)cc1 [Compound 16, (Z)-N-[1-[[4-(4-bromophenyl)-4-hydroxy-1-piperidinyl]carbonyl]-2-(4-methoxyphenyl)ethenyl]benzamide]
inhibition at 100 µg/mL [1]: 0% | inhibition at 100 µg/mL [2]: 1% | inhibition at 100 µg/mL [3]: 57% | inhibition at 100 µg/mL [4]: 8% | inhibition at 50 µg/mL (Alternaria solani): 23% | inhibition at 50 µg/mL (Botrytis cinerea): 29% | inhibition at 50 µg/mL (Cercospora arachidicola; read-out: Fungicidal activity (inhibition) against CA: Cercospora arachidicola): 55% | inhibition at 50 µg/mL (Cercospora arachidicola; [6]): 55% | inhibition at 50 µg/mL (wheat Gibberella zeae): 2% | inhibition at 50 µg/mL ([5]; read-out: Fungicidal activity (inhibition) against PI: Phytophthora infestans (Mont) de Bary): 33% | inhibition at 50 µg/mL [5, 7]: 33% | inhibition at 50 µg/mL (Physalospora piricola): 5% | inhibition at 50 µg/mL (Pellicularia sasakii): 15% | inhibition at 50 µg/mL (Rhizoctonia cerealis): 13% | inhibition at 50 µg/mL (Sclerotinia sclerotiorum; [9]): 67% | melting point: 208 to 210 °C
